# Experimental data as given in PubChem BioAssay (NCI).
#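 48-hour exposure; five concentrations; linearly interpolated endpoints. Here, GI50 denotes the concentration required for 50% inhibition of growth. TGI marks complete inhibition of growth.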
# Key:
# Experiment in all cases: inhibition of tumour cell growth, NCI panel, 48 h
# M14 melanoma = system: M14 melanoma
# NCI-H226 lung = system: NCI-H226 lung
# SK-MEL-2 melanoma = system: SK-MEL-2 melanoma
# UO-31 renal = system: UO-31 renal
# HT29 colon = system: HT29 colon
# UACC-62 melanoma = system: UACC-62 melanoma
# EKVX NSCLC = system: EKVX NSCLC
# OVCAR-8 ovarian = system: OVCAR-8 ovarian
# TK-10 renal = system: TK-10 renal
# RPMI-8226 leukemia = system: RPMI-8226 leukemia
# NCI/ADR-RES ovarian = system: NCI/ADR-RES ovarian
# T-47D breast = system: T-47D breast
# SNB-75 CNS = system: SNB-75 CNS
# IGROV1 ovarian = system: IGROV1 ovarian
# MOLT-4 leukemia = system: MOLT-4 leukemia
# HL-60(TB) leukemia = system: HL-60(TB) leukemia
# PC-3 prostate = system: PC-3 prostate
# UACC-257 melanoma = system: UACC-257 melanoma
# OVCAR-5 ovarian = system: OVCAR-5 ovarian
# MDA-MB-231 breast = system: MDA-MB-231 breast
# SN12C renal = system: SN12C renal
# 786-0 renal = system: 786-0 renal
# CCRF-CEM leukemia = system: CCRF-CEM leukemia
# HCT-116 colon = system: HCT-116 colon
# SK-MEL-5 melanoma = system: SK-MEL-5 melanoma
# MCF7 breast = system: MCF7 breast
# SNB-19 CNS = system: SNB-19 CNS
# U251 CNS = system: U251 CNS
# COLO 205 colon = system: COLO 205 colon
# HCC-2998 colon = system: HCC-2998 colon
# NCI-H522 lung = system: NCI-H522 lung
# OVCAR-4 ovarian = system: OVCAR-4 ovarian
# ACHN renal = system: ACHN renal
# A549 NSCLC = system: A549 NSCLC
# BT-549 breast = system: BT-549 breast
# SK-OV-3 ovarian = system: SK-OV-3 ovarian
# HOP-92 NSCLC = system: HOP-92 NSCLC
# SW-620 colon = system: SW-620 colon
# SK-MEL-28 melanoma = system: SK-MEL-28 melanoma
# SF-295 CNS = system: SF-295 CNS
# SF-539 CNS = system: SF-539 CNS
# CAKI-1 renal = system: CAKI-1 renal
# HOP-62 NSCLC = system: HOP-62 NSCLC
# OVCAR-3 ovarian = system: OVCAR-3 ovarian
# K-562 leukemia = system: K-562 leukemia
# KM12 colon = system: KM12 colon
# SR leukemia = system: SR leukemia
# HS 578T breast = system: HS 578T breast
# MDA-MB-435 = system: MDA-MB-435
# RXF 393 renal = system: RXF 393 renal
# HCT-15 colon = system: HCT-15 colon
# NCI-H460 lung = system: NCI-H460 lung
# SF-268 CNS = system: SF-268 CNS
# A498 renal = system: A498 renal
# DU-145 prostate = system: DU-145 prostate
# LOX IMVI melanoma = system: LOX IMVI melanoma
# MALME-3M melanoma = system: MALME-3M melanoma
compound,measurement,setting,value
C/C(=C(/c1ccc(O)cc1)c1ccc(OCCN2CCCC2)cc1)c1ccc(Cl)cc1,GI50,M14 melanoma,1.69 µM
same,TGI,M14 melanoma,3.23 µM
same,GI50,NCI-H226 lung,10.8 µM
same,TGI,NCI-H226 lung,32.4 µM
same,GI50,SK-MEL-2 melanoma,7.37 µM
same,TGI,SK-MEL-2 melanoma,20.5 µM
same,GI50,UO-31 renal,2.51 µM
same,TGI,UO-31 renal,11.4 µM
same,GI50,HT29 colon,1.73 µM
same,TGI,HT29 colon,3.41 µM
same,GI50,UACC-62 melanoma,2.04 µM
same,TGI,UACC-62 melanoma,4.57 µM
same,GI50,EKVX NSCLC,5.84 µM
same,TGI,EKVX NSCLC,18.7 µM
same,GI50,OVCAR-8 ovarian,2.82 µM
same,TGI,OVCAR-8 ovarian,8.04 µM
same,GI50,TK-10 renal,13.6 µM
same,TGI,TK-10 renal,27.3 µM
same,GI50,RPMI-8226 leukemia,2.24 µM
same,TGI,RPMI-8226 leukemia,5.52 µM
same,GI50,NCI/ADR-RES ovarian,3.68 µM
same,TGI,NCI/ADR-RES ovarian,14.2 µM
same,GI50,T-47D breast,1.54 µM
same,TGI,T-47D breast,10.4 µM
same,GI50,SNB-75 CNS,3.06 µM
same,TGI,SNB-75 CNS,16.6 µM
same,GI50,IGROV1 ovarian,4.62 µM
same,TGI,IGROV1 ovarian,17.5 µM
same,GI50,MOLT-4 leukemia,2.52 µM
same,TGI,MOLT-4 leukemia,6.02 µM
same,GI50,HL-60(TB) leukemia,2.09 µM
same,TGI,HL-60(TB) leukemia,4.11 µM
same,GI50,PC-3 prostate,2.94 µM
same,TGI,PC-3 prostate,10.8 µM
same,GI50,UACC-257 melanoma,1.78 µM
same,TGI,UACC-257 melanoma,3.55 µM
same,GI50,OVCAR-5 ovarian,6.26 µM
same,TGI,OVCAR-5 ovarian,18.8 µM
same,GI50,MDA-MB-231 breast,3.52 µM
same,TGI,MDA-MB-231 breast,13.1 µM
same,GI50,SN12C renal,5.21 µM
same,TGI,SN12C renal,18.2 µM
same,GI50,786-0 renal,1.65 µM
same,TGI,786-0 renal,3.16 µM
same,GI50,CCRF-CEM leukemia,2.41 µM
same,TGI,CCRF-CEM leukemia,7.38 µM
same,GI50,HCT-116 colon,1.63 µM
same,TGI,HCT-116 colon,3.21 µM
same,GI50,SK-MEL-5 melanoma,1.78 µM
same,TGI,SK-MEL-5 melanoma,3.23 µM
same,GI50,MCF7 breast,0.0364 µM
same,TGI,MCF7 breast,3.26 µM
same,GI50,SNB-19 CNS,3.85 µM
same,TGI,SNB-19 CNS,13.8 µM
same,GI50,U251 CNS,2.03 µM
same,TGI,U251 CNS,4.59 µM
same,GI50,COLO 205 colon,1.64 µM
same,TGI,COLO 205 colon,3.14 µM
same,GI50,HCC-2998 colon,2.06 µM
same,TGI,HCC-2998 colon,4.21 µM
same,GI50,NCI-H522 lung,1.83 µM
same,TGI,NCI-H522 lung,4.11 µM
same,GI50,OVCAR-4 ovarian,4.78 µM
same,TGI,OVCAR-4 ovarian,17.2 µM
same,GI50,ACHN renal,3.35 µM
same,TGI,ACHN renal,11.9 µM
same,GI50,A549 NSCLC,7.58 µM
same,TGI,A549 NSCLC,20.5 µM
same,GI50,BT-549 breast,8.98 µM
same,TGI,BT-549 breast,21.1 µM
same,GI50,SK-OV-3 ovarian,9.59 µM
same,TGI,SK-OV-3 ovarian,21.5 µM
same,GI50,HOP-92 NSCLC,2.38 µM
same,TGI,HOP-92 NSCLC,9.63 µM
same,GI50,SW-620 colon,1.69 µM
same,TGI,SW-620 colon,3.24 µM
same,GI50,SK-MEL-28 melanoma,1.75 µM
same,TGI,SK-MEL-28 melanoma,3.21 µM
same,GI50,SF-295 CNS,2.16 µM
same,TGI,SF-295 CNS,4.77 µM
same,GI50,SF-539 CNS,1.69 µM
same,TGI,SF-539 CNS,3.24 µM
same,GI50,CAKI-1 renal,2.07 µM
same,TGI,CAKI-1 renal,6.39 µM
same,GI50,HOP-62 NSCLC,3.99 µM
same,TGI,HOP-62 NSCLC,15 µM
same,GI50,OVCAR-3 ovarian,3.05 µM
same,TGI,OVCAR-3 ovarian,11.8 µM
same,GI50,K-562 leukemia,1.64 µM
same,TGI,K-562 leukemia,3.94 µM
same,GI50,KM12 colon,3.39 µM
same,TGI,KM12 colon,12.2 µM
same,GI50,SR leukemia,1.81 µM
same,TGI,SR leukemia,4.71 µM
same,GI50,HS 578T breast,2.56 µM
same,TGI,HS 578T breast,8.36 µM
same,GI50,MDA-MB-435,1.72 µM
same,TGI,MDA-MB-435,3.21 µM
same,GI50,RXF 393 renal,1.63 µM
same,TGI,RXF 393 renal,3.23 µM
same,GI50,HCT-15 colon,1.99 µM
same,TGI,HCT-15 colon,4.62 µM
same,GI50,NCI-H460 lung,1.8 µM
same,TGI,NCI-H460 lung,3.33 µM
same,GI50,SF-268 CNS,4.78 µM
same,TGI,SF-268 CNS,20 µM
same,GI50,A498 renal,16.6 µM
same,TGI,A498 renal,32.3 µM
same,GI50,DU-145 prostate,4.54 µM
same,TGI,DU-145 prostate,15.7 µM
same,GI50,LOX IMVI melanoma,1.71 µM
same,TGI,LOX IMVI melanoma,3.17 µM
same,GI50,MALME-3M melanoma,1.64 µM
same,TGI,MALME-3M melanoma,3.11 µM
